Entries after “also recorded” stand apart in the source; their conditions may differ.

Test [1] deals with HCT116 cells. Put plainly: SRB assay in HCT116. The test is classed as cell-based. As to conditions: Homo sapiens, HCT-116, read-out: anti-proliferation IC50, initial screen. As for the experimental part:
(§1) Sulfor hod am ine B p rotei n st ai ning (SRB) assay
(§2) Cell pr oliferat ion was eva lua ted by sul for hod amine B pr ot ein st aini ng (SRB) assa y10-12.
(§3) Briefly, cel ls were se ede d int o 96-well pl ates, cul tur ed overni ght , and trea ted with correspond ing com poun ds for 72 h. Cells were the n fixe d with 10% trichl or oa cetic aci d and st ained with sul for hoda mine B (Sigm a). Sul for hoda mine B in the cells was di sso lved in 10 mmol/L Tris-HCl and was measured at 515 nm usi ng a multiw ell spect ropho tometer (VERSA max, Mol ecul ar Devi ces, Sunnyva le, CA). The inhi bi tion rat e on cell pr olif eratio n was cal culated for each well as (A515contr ol cells-A 515tr eated cells)/A515contr ol cells×100 % (A515:
(§4) OD va lue at 515 nm ). The averag e IC50 va lue s were de termine d by Logit method from at leas t t hr eei nde pe nde nt test s.
In general terms: Sulforhodamine B stains cellular protein and so reports cell mass.

Test [2] has as its target T1, NMNAT (Mus musculus, UniProt Q9EPA7).
T1 construct: His-tag; made in house; host or cells: E. coli BL21-CodonPlus (DE3)-RIL
The test is described as follows: Isothermal titration calorimetry (ITC). In kind it is binding. As to conditions: 554 μM MS0 into 25 μM protein, 25 °C. As for the experimental part:
Thermodynamic parameters of small molecule binding to protein were determined using a MicroCal VP-ITC calorimeter. NMNAT protein solutions were ultrafiltrated in Amicon Ultra-0.5 Centrifugal Filter Unit (Merck Millipore) against buffer [20 mM Tris (pH 7.5), 20 mM NaCl], which was subsequently used to prepare a matched compound solution. […] Measurements were performed at 25 °C with spacing of 90 s between injections.
Pr otei n e xp ressi on andpur ification
Prot eins were expres se d and pur ified by our pr e vi ous methods2,3. […]
The pur ity of the pr ot ein was more tha n 90% de term ine d by SDS-PAGE and Coo massi e Blue (Tiange n, C hi na) staining and f ur the r by w est ern bl ot a na lysi s (Fig. S1).
High t hrou ghput sc reen ing (HTS)
HTS was pe rfor med usi ng our previ ously repor ted method 3. 0.5 μl st oc k of each com poun d (1 mM DMSO st oc k) was transf erred to a 96-well PCR pl ate for sc ree ni ng. […] Fina lly, 85 μl mixt ur es in each well were transf erred int o a flat-bottom 96-well black plate (Greiner) , and the fluoresc enc e (F) was measured usi ng a Teca n Inf inity M200 pl ate reader (Tecan Group Lt d.) by se tting the exc itation and emissi on wave leng th to 382 nm and 445nm respe ctive ly. […]
In general terms: ITC needs no label: the signal is the heat of the interaction.

The subject of test [3] is metastatic lung cancer cell line 95-D. Put plainly: SRB assay in 95-D. In kind it is cell-based, human. Particulars: 72 hours. As for the experimental part:
as §1, §2, §3, §4

The test system of test [4] is NAMPT. Particulars: read-out: biochemical potency IC50; reported independently by Zheng et al. ref 19, 22; cited from earlier work.
Test [5] concerns Huh7-C cells. The test is described as follows: CCK-8 assay in stem-like human hepatoma cell line Huh7-C. The test is classed as cell-based. As to conditions: 60 h, read-out: CCK-8 assay in Huh7-C: IC50. On the procedure:
Cellc ount ing k it-8 (CCK-8) assa y
Cell vi ability was de termine d by ou r previ ous method9 usi ng the Cell Counting Kit-8 (CCK -8, […]
10 μl CCK-8 sol ution was adde d to the cul ture medium and inc ub ated at 37 °C for 1 h. Th e absor banc e at 450 nm (A450) was de tected by a pl ate reade r. Each e xperi ment w as carr ied out i n t riplic ate i n thr ee r eplic ate w ells.
For orientation: Formazan colour is commonly taken as a measure of viable cells.

T1 sequence (Q9EPA7 whole entry): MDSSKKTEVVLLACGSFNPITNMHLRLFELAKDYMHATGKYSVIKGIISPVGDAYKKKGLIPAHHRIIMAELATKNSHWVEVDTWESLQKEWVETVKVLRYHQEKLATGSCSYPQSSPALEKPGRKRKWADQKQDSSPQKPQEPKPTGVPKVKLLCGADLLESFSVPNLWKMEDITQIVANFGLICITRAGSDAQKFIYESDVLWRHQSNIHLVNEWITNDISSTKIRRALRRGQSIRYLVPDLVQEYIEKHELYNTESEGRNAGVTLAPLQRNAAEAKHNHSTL

As to `O=S(=O)(c1ccc(NC(=S)NCc2cccnc2)cc1)N1CCCCC1` [MS0], the IC50 in test [1] was less than 5 µM; in test [4] it was […]; in test [5] it was 0.722 ± 0.0363 µM. Besides, the “interaction with NMNAT by ITC” value in test [2] is given as “did not detect an interaction; also recorded: does not show detectable interaction”. In test [3], the “growth inhibition (SRB, in words)” value was “potent growth inhibition”.

The values above are taken from paper PMC4603696, “Discovery and characterization of novel small-molecule inhibitors targeting nicotinamide phosphoribosyltransferase” (Scientific Reports, 2015).
